MIC data for 15 compounds are collected here from ChEMBL document CHEMBL3817752, “Antimycobacterial activity of new N(1)-[1-[1-aryl-3-[4-(1H-imidazol-1-yl)phenyl]-3-oxo]propyl]-pyridine-2-carboxamidrazone derivatives” (Bioorg Med Chem Lett, 2016).

The experiment has as its system Mycobacterium tuberculosis variant bovis. Kind of experiment: Antimycobacterial activity against Mycobacterium bovis NCTC 10772 after 7 days by resazurin microtiter assay. It counts as functional. Conditions: NCTC 10772, 168 h. A general note: Resazurin is reduced to fluorescent resorufin, in cell work by metabolically active cells.

In brackets after ≈: the same amount, converted by molar mass.

For `N/C(=N/NC(CC(=O)c1ccc(-n2ccnc2)cc1)c1ccccc1Cl)c1ccccn1` (stereo not given), the MIC amounted to 18 µM (≈ 8.01 µg/mL).

`N/C(=N/NC(CC(=O)c1ccc(-n2ccnc2)cc1)c1ccccc1)c1ccccn1` (stereo not given) came in with an MIC of 39 µM (≈ 16 µg/mL).

The compound `N/C(=N/NC(CC(=O)c1ccc(-n2ccnc2)cc1)c1ccc(Cl)cc1Cl)c1ccccn1` (stereo not given) yielded an MIC of 9 µM (≈ 4.31 µg/mL).

The compound `N/C(=N/NC(CC(=O)c1ccc(-n2ccnc2)cc1)c1ccccc1[N+](=O)[O-])c1ccccn1` (stereo not given) gave an MIC of 17.6 µM (≈ 8.02 µg/mL).

For `N/C(=N/NC(CC(=O)c1ccc(-n2ccnc2)cc1)c1cccc(F)c1)c1ccccn1` (stereo not given), the MIC was determined as 18.7 µM (≈ 8.01 µg/mL).

With `N/C(=N/NC(CC(=O)c1ccc(-n2ccnc2)cc1)c1cccc([N+](=O)[O-])c1)c1ccccn1` (stereo not given), the MIC was 17.6 µM (≈ 8.02 µg/mL).

`N/C(=N/NC(CC(=O)c1ccc(-n2ccnc2)cc1)c1ccc(Cl)cc1)c1ccccn1` (stereo not given) gave an MIC of 18 µM (≈ 8.01 µg/mL).

`N/C(=N/NC(CC(=O)c1ccc(-n2ccnc2)cc1)c1ccccc1F)c1ccccn1` (stereo not given) yielded an MIC of 18.7 µM (≈ 8.01 µg/mL).

In turn, `N/C(=N/NC(CC(=O)c1ccc(-n2ccnc2)cc1)c1ccc(Br)cc1)c1ccccn1` (stereo not given) returned an MIC of 8.2 µM (≈ 4.01 µg/mL).

`N/C(=N/NC(CC(=O)c1ccc(-n2ccnc2)cc1)c1cccc(Br)c1)c1ccccn1` (stereo not given) displayed an MIC of 16.3 µM (≈ 7.98 µg/mL).

Take `N/C(=N/NC(CC(=O)c1ccc(-n2ccnc2)cc1)c1ccccc1Br)c1ccccn1` (stereo not given): the MIC was 32.7 µM (≈ 16 µg/mL).

Consider `N/C(=N/NC(CC(=O)c1ccc(-n2ccnc2)cc1)c1cccc(Cl)c1)c1ccccn1` (stereo not given), for which the MIC is 18 µM (≈ 8.01 µg/mL).

Take `N/C(=N/NC(CC(=O)c1ccc(-n2ccnc2)cc1)c1ccc(F)cc1)c1ccccn1` (stereo not given): it took 18.7 µM (≈ 8.01 µg/mL) to inhibit growth (MIC).

Regarding `N/C(=N/NC(CC(=O)c1ccc(-n2ccnc2)cc1)c1ccc([N+](=O)[O-])cc1)c1ccccn1` (stereo not given), the MIC turned out to be 35.1 µM (≈ 16 µg/mL).

The compound `NNC(=O)c1ccncc1` [ISONIAZID] returned an MIC of 7.3 µM (≈ 1 µg/mL).

As usually defined, the MIC is the smallest concentration in the dilution series that meets the test's criterion for growth inhibition. Lower therefore signals greater potency.
